Measurements from patent US9751854B2 (Millennium Pharmaceuticals, Inc., priority 2014, dated 2017).

The molecules below were run against human VPS34 (Homo sapiens (Human), UniProt Q8NEB9) (assay: Human VPS34 enzyme assay (Adapta TR-FRET ADP detection)). Details: IC50 range class.
Format: biochemical

human VPS34, sequence (Q8NEB9 whole entry): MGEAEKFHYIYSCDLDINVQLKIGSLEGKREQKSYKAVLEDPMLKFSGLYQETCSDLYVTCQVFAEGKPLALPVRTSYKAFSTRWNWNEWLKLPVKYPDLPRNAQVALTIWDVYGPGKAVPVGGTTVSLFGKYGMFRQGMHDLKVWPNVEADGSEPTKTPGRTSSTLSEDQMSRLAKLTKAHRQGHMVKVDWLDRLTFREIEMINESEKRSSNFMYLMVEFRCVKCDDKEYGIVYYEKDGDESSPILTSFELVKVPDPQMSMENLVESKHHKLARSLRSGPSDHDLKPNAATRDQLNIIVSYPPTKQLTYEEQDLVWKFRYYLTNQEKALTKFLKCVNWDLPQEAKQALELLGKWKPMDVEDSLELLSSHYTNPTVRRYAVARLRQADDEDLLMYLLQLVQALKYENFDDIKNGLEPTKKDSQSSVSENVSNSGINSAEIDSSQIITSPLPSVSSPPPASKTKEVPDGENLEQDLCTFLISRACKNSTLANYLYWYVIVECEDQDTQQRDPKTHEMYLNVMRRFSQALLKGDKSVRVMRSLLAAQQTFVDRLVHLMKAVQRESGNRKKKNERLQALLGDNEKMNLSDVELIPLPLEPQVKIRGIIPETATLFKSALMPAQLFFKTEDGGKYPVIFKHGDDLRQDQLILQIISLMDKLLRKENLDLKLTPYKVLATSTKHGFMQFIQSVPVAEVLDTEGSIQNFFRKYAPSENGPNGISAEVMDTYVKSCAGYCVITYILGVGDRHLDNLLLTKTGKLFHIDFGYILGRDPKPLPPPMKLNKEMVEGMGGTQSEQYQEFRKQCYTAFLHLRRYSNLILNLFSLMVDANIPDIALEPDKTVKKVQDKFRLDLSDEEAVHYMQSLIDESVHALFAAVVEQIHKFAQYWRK

Row | Structure (SMILES) | IC50 [nM]
1 | CC(=O)Nc1cc(-c2cnc(N)c(N(C)S(C)(=O)=O)c2)ccn1 [Compound I-133, N-{6-amino-5-[methyl(methylsulfonyl)amino]-3,4′-bipyridin-2′-yl}acetamide] | < 10
2 | CC(=O)Nc1cc(-c2cnc(C)c(NS(=O)(=O)c3ccc(C(C)C)cc3)c2)ccn1 [Compound I-134, N-(5-{[(4-isopropylphenyl)sulfonyl]amino}-6-methyl-3,4′-bipyridin-2′-yl)acetamide] | 10 to 50
3 | CC(=O)Nc1cc(-c2cnc3ncn(CC4CC4)c3c2)ccn1 [Compound I-135, N-{4-[1-(cyclopropylmethyl)-1H-imidazo[4,5-b]pyridin-6-yl]pyridin-2-yl}acetamide] | > 100
4 | CC(=O)Nc1cc(-c2cnc(N)c(C(=O)Nc3ccccc3Cl)c2)ccn1 [Compound I-136, 2′-acetamido-6-amino-N-(2-chlorophenyl)-3,4′-bipyridine-5-carboxamide] | < 10
5 | CC(=O)Nc1cc(-c2cncc(S(=O)(=O)N(C)C)c2)ccn1 [Compound I-137, N-[5-(dimethylsulfamoyl)-3,4′-bipyridin-2′-yl]acetamide] | 10 to 50
6 | CC(=O)Nc1cc(-c2cnc(N)c(S(=O)(=O)Cc3ccc(F)cc3F)c2)ccn1 [Compound I-138, N-[6-amino-5-[(2,4-difluorobenzyl)sulfonyl]-3,4′-bipyridin-2′-yl]acetamide] | 10 to 50
7 | CC(=O)Nc1cc(-c2cncc(N)c2)ccn1 [Compound I-139, N-(5-amino-3,4′-bipyridin-2′-yl)acetamide] | > 100
8 | CC(=O)Nc1cc(-c2cnc3[nH]ccc3c2)ccn1 [Compound I-140, N-[4-(1H-pyrrolo[2,3-b]pyridin-5-yl)pyridin-2-yl]acetamide] | 10 to 50
9 | CNc1ncc(-c2ccnc(NC(C)=O)c2)cc1N(CC1CC1)S(C)(=O)=O [Compound I-141] | < 10
10 | COc1cc(C)ccc1S(=O)(=O)Nc1cc(-c2ccnc(NC(C)=O)c2)cnc1C [Compound I-142, N-(5-{[(2-methoxy-4-methylphenyl)sulfonyl]amino}-6-methyl-3,4′-bipyridin-2′-yl)acetamide] | < 10
11 | CC(=O)Nc1cc(-c2cnc(C)c(NS(=O)(=O)c3cc(C(F)(F)F)ccc3F)c2)ccn1 [Compound I-143, N-[5-({[2-fluoro-5-(trifluoromethyl)phenyl]sulfonyl}amino)-6-methyl-3,4′-bipyridin-2′-yl]acetamide] | < 10
12 | CC(=O)Nc1cc(-c2cnc(C)c(NS(=O)(=O)c3ccccc3F)c2)ccn1 [Compound I-144, N-[5-{[(2-fluorophenyl)sulfonyl]amino}-6-methyl-3,4′-bipyridin-2′-yl)acetamide] | < 10
13 | CCOCCS(=O)(=O)c1cc(-c2ccnc(NC(C)=O)c2)cnc1N [Compound I-145, N-{6-amino-5-[(2-ethoxyethyl)sulfonyl]-3,4′-bipyridin-2′-yl}acetamide] | 50 to 100
14 | COC(=O)Nc1cc(-c2cnc(C)c(N3CCCS3(=O)=O)c2)ccn1 [Compound I-146, methyl [5-(1,1-dioxidoisothiazolidin-2-yl)-6-methyl-3,4′-bipyridin-2′-yl]carbamate] | 10 to 50
15 | CNc1ncc(-c2ccnc(NC(C)=O)c2)cc1N(C)S(C)(=O)=O [Compound I-147, N-{6-(methylamino)-5-[methyl(methylsulfonyl)amino]-3,4′-bipyridin-2′-yl}acetamide] | < 10
16 | CC(=O)Nc1cc(-c2cnc(N)c(S(=O)(=O)NCCc3ccccc3)c2)ccn1 [Compound I-148, N-{6-amino-5-[(2-phenylethyl)sulfamoyl]-3,4′-bipyridin-2′-yl}acetamide] | 10 to 50
17 | CC(=O)Nc1cc(-c2cnc(N)c(C(=O)N(C)C)c2)ccn1 [Compound I-149, 2′-acetamido-6-amino-N,N-dimethyl-3,4′-bipyridine-5-carboxamide] | 10 to 50
18 | CC(=O)Nc1cc(-c2cnc(C)c(NS(=O)(=O)c3c(F)cccc3F)c2)ccn1 [Compound I-150, N-(5-{[(2,6-difluorophenyl)sulfonyl]amino]-6-methyl-3,4′-bipyridin-2′-yl)acetamide] | < 10
19 | CC(=O)Nc1cc(-c2cnc3c(c2)c(S(=O)(=O)N2CCCC2)cn3C)ccn1 [Compound I-151, N-{4-[1-methyl-3-(pyrrolidin-1-ylsulfonyl)-1H-pyrrolo[2,3-b]pyridin-5-yl]pyridin-2-yl}acetamide] | 10 to 50
20 | CC(=O)Nc1cc(-c2cnc(N)c(C(=O)N3CCOCC3)c2)ccn1 [Compound I-152, N-[6-amino-5-(morpholin-4-ylcarbonyl)-3,4′-bipyridin-2′-yl]acetamide] | 10 to 50
21 | CC(=O)Nc1cc(-c2cnc(C)c(NS(=O)(=O)c3ccc(Cl)cc3)c2)ccn1 [Compound I-154, N-(5-{[(4-chlorophenyl)sulfonyl]amino}-6-methyl-3,4′-bipyridin-2′-yl)acetamide] | < 10
22 | CC(=O)Nc1cc(-c2cnc(C)c(NS(=O)(=O)c3cccc(F)c3)c2)ccn1 [Compound I-155, N-(5-{[(3-fluorophenyl)sulfonyl]amino}-6-methyl-3,4′-bipyridin-2′-yl)acetamide] | < 10

Row | Structure (SMILES) | IC50 [nM]
23 | CC(=O)Nc1cc(-c2cnc(N)c(S(=O)(=O)N3CCCCC3)c2)ccn1 [Compound I-156, N-[6-amino-5-(piperidin-1-ylsulfonyl)-3,4′-bipyridin-2′-yl]acetamide] | < 10
24 | CC(=O)Nc1cc(-c2cnc(N)c(C(=O)N3CC[C@@H](F)C3)c2)ccn1 [Compound I-157, N-[6-amino-5-{[(3R)-3-fluoropyrrolidin-1-yl]carbonyl}-3,4′-bipyridin-2′-yl)acetamide] | 10 to 50
25 | CC(=O)Nc1cc(-c2cnc3[nH]cc(S(=O)(=O)N4CCCC4)c3c2)ccn1 [Compound I-158, N-{4-[3-(pyrrolidin-1-ylsulfonyl)-1H-pyrrolo[2,3-b]pyridin-5-yl]pyridin-2-yl}acetamide] | < 10
26 | COc1cc(F)c(S(=O)(=O)Nc2cc(-c3ccnc(NC(C)=O)c3)cnc2C)cc1F [Compound I-159, N-(5-{[(2,5-difluoro-4-methoxyphenyl)sulfonyl]amino}-6-methyl-3,4′-bipyridin-2′-yl)acetamide] | < 10
27 | CNc1ncc(-c2ccnc(NC(C)=O)c2)cc1C(=O)NC12CC(C1)C2 [Compound I-160, 2′-acetamido-N-(bicyclo[1.1.1]pent-1-yl)-6-(methylamino)-3,4′-bipyridine-5-carboxamide] | 10 to 50
28 | CC(=O)Nc1cc(-c2cnc(C)c(NS(=O)(=O)c3ccc(F)cc3F)c2)c(F)cn1 [Compound I-161, N-(5-{[(2,4-difluorophenyl)sulfonyl]amino}-5′-fluoro-6-methyl-3,4′-bipyridin-2′-yl)acetamide] | < 10
29 | CC(=O)Nc1cc(-c2cnc(N(C)C)c(C(=O)N(C)C)c2)ccn1 [Compound I-162, 2′-acetamido-6-(dimethylamino)-N,N-dimethyl-3,4′-bipyridine-5-carboxamide] | 10 to 50
30 | COc1ccc(S(=O)(=O)Nc2cc(-c3ccnc(NC(C)=O)c3)cnc2C)c(F)c1 [Compound I-163, N-(5-{[(2-fluoro-4-methoxyphenyl)sulfonyl]amino}-6-methyl-3,4′-bipyridin-2′-yl)acetamide] | < 10
31 | CC(=O)Nc1cc(-c2cnc(F)c(NS(=O)(=O)c3ccc(F)cc3F)c2)ccn1 [Compound I-164, N-(5-{[(2,4-difluorophenyl)sulfonyl]amino}-6-fluoro-3,4′-bipyridin-2′-yl)acetamide] | < 10
32 | COc1ccc(S(=O)(=O)Nc2cc(-c3ccnc(NC(C)=O)c3)cnc2C)cc1 [Compound I-165, N-(5-{[(4-methoxyphenyl)sulfonyl]amino}-6-methyl-3,4′-bipyridin-2′-yl)acetamide] | < 10
33 | CN(C)S(=O)(=O)c1cc(-c2ccnc(Nc3ncco3)c2)cnc1N [Compound I-166, 6-amino-N,N-dimethyl-2′-(1,3-oxazol-2-ylamino)-3,4′-bipyridine-5-sulfonamide] | < 10
34 | CC(=O)Nc1cc(-c2cnc(C)c(NS(C)(=O)=O)c2)ccn1 [Compound I-167, N-{6-methyl-5-[(methylsulfonyl)amino]-3,4′-bipyridin-2′-yl}acetamide] | 10 to 50
35 | CC(=O)Nc1cc(-c2cnc(C)c(NS(=O)(=O)c3cccc(C(F)(F)F)c3)c2)ccn1 [Compound I-168, N-[6-methyl-5-({[3-(trifluoromethyl)phenyl]sulfonyl}amino)-3,4′-bipyridin-2′-yl]acetamide] | < 10
36 | CC(=O)Nc1cc(-c2cnc(N)c(C(=O)NC3CC3)c2)ccn1 [Compound I-169, 2′-acetamido-6-amino-N-cyclopropyl-3,4′-bipyridine-5-carboxamide] | 10 to 50
37 | CC(=O)Nc1cc(-c2cnc(N)c(S(=O)(=O)Nc3ccc(F)cc3F)c2)ccn1 [Compound I-170, N-{6-amino-5-[(2,4-difluorophenyl)sulfamoyl]-3,4′-bipyridin-2′-yl}acetamide] | < 10
38 | COC(=O)Nc1cc(-c2cnc(N)c(S(=O)(=O)N(C)C)c2)ccn1 [Compound I-171, Methyl [6-amino-5-(dimethylsulfamoyl)-3,4′-bipyridin-2′-yl]carbamate] | < 10
39 | CC(=O)Nc1cc(-c2cnc(N)c(S(=O)(=O)Cc3ccccc3Cl)c2)ccn1 [Compound I-172, N-{6-amino-5-[(chlorobenzyl)sulfonyl]-3,4′-bipyridin-2′-yl}acetamide] | 10 to 50
40 | CNc1ncc(-c2ccnc(NC(C)=O)c2)cc1S(=O)(=O)N(C(C)C)C(C)C [Compound I-173, N-[5-(diisopropylsulfamoyl)-6-(methylamino)-3,4′-bipyridin-2′-yl]acetamide] | < 10
41 | CC(=O)Nc1cc(-c2cnc(N(C)C)c(C(=O)N(C)c3ccc(F)cc3F)c2)ccn1 [Compound I-174, 2′-Acetamido-N-(2,4-difluorophenyl)-6-(dimethylamino)-N-methyl-[3,4′-bipyridine]-5-carboxamide] | < 10
42 | CC(=O)Nc1cc(-c2cnc(N)c(S(=O)(=O)C(C)C)c2)ccn1 [Compound I-175, N-[6-amino-5-(isopropylsulfonyl)-3,4′-bipyridin-2′-yl]acetamide] | 10 to 50
43 | CC(=O)Nc1cc(-c2cnc3[nH]cc(S(=O)(=O)c4ccccc4)c3c2)ccn1 [Compound I-176, N-{4-[3-(phenylsulfonyl)-1H-pyrrolo[2,3-b]pyridin-5-yl]pyridin-2-yl}acetamide] | 10 to 50
